These molecules were tested on RSV (assay: Dose-response counterscreen: luciferase reporter virus infection of BEAS-2B cells (EC50)). Details: human respiratory syncytial virus, A series compounds, anti-RSV potency, read-out: Potency Range (EC50 values).
Type: cell-based, respiratory syncytial virus (RSV)

| SMILES | EC50 [nM] |
| --- | --- |
| COc1cc(C2CC(=O)Nc3c2cnn3-c2ccccc2)ccc1OC1CCCC1 (centres unmarked) [AVG-066] | 10000 to 20000 |
| COc1cc(C2CC(=O)Nc3[nH]ncc32)ccc1OC1CCCC1 (centres unmarked) [AVG-179] | > 20000 |
| COc1ccc(Cn2ncc3c2NC(=O)CC3c2ccc(OC)c(OC3CCCC3)c2)c(OC)c1 (centres unmarked) [AVG-068, 4-(3-(cyclopentyloxy)-4-methoxyphenyl)-1-(2,4-dimethoxybenzyl)-4,5-dihydro-1H-pyrazolo[3,4-b]pyridin-6(7H)-one] | 1000 to 10000 |
| COc1ccc(Cn2ncc3c2NC(=O)CC3c2ccc(OC3CCCC3)c(OC)c2)c(OC)c1 (centres unmarked) [AVG-181] | 1000 to 10000 |
| COc1cc(C2CC(=O)Nc3c2cnn3-c2nc3ccccc3s2)ccc1OC1CCCC1 (centres unmarked) [AVG-006, 1-(benzo[d]thiazol-2-yl)-4-(4-(cyclopentyloxy)-3-methoxyphenyl)-4,5-dihydro-1H-pyrazolo[3,4-b]pyridin-6(7H)-one] | 1000 to 10000 |
| COc1ccc(C2CC(=O)Nc3c2cnn3-c2ccccc2)cc1OC1CCCC1 (centres unmarked) [AVG-065, 4-(3-(cyclopentyloxy)-4-methoxyphenyl)-1-phenyl-4,5-dihydro-1H-pyrazolo[3,4-b] pyridin-6(7H)-one] | 10000 to 20000 |
| COc1cc(C2CC(=O)Nc3c2cnn3-c2ccccn2)ccc1OC1CCCC1 (centres unmarked) [AVG-180] | 10000 to 20000 |
| COc1cc(C2CC(=O)Nc3nn(-c4nc5ccccc5s4)cc32)ccc1OC1CCCC1 (centres unmarked) [AVG-006b] | 1000 to 10000 |
| COc1ccc(C2CC(=O)Nc3c2cnn3-c2ccccn2)cc1OC1CCCC1 (centres unmarked) [AVG-116] | 1000 to 10000 |
| COc1cc(C2CC(=O)Nc3nn(-c4ccccn4)cc32)ccc1OC1CCCC1 (centres unmarked) [AVG-180b] | 10000 to 20000 |
| COc1ccc(C2CC(=O)Nc3[nH]ncc32)cc1OC1CCCC1 (centres unmarked) [AVG-069, 4-(3-(cyclopentyloxy)-4-methoxyphenyl)-4,5-dihydro-1H-pyrazolo[3,4-b]pyridin-6(7H)-one] | > 20000 |

Same assay, conditions: human respiratory syncytial virus, B series compounds, read-out: Potency Range (EC50 values)

| SMILES | EC50 [nM] |
| --- | --- |
| Cc1c2c(=O)n(-c3ccccn3)n(Cc3ccccc3)c2cc(=O)n1Cc1nccs1 [AVG-239] | 1000 to 10000 |
| Cc1c2c(=O)n(-c3nc4ccccc4s3)n(Cc3ccc(Cl)cc3)c2cc(=O)n1Cc1cccc(Cl)n1 [AVG-173] | 100 to 1000 |
| Cc1c2c(=O)n(-c3nc4ccc(OC(C)C)cc4s3)n(Cc3ccccc3)c2cc(=O)n1Cc1cccc(Cl)n1 [AVG-256] | 10 to 100 |
| Cc1c2c(=O)n(-c3nc4ccccc4s3)[nH]c2cc(=O)n1Cc1ccco1 [AVG-022, 2-(benzo[d]thiazol-2-yl)-5-(furan-2-ylmethyl)-4-methyl-1H-pyrazolo[4,3-c]pyridine-3,6(2H, 5H)-dione] | 100 to 1000 |
| CCc1c2c(=O)n(-c3nc4ccccc4s3)n(Cc3ccccc3)c2cc(=O)n1Cc1cccc(Cl)n1 [AVG-165] | 1000 to 10000 |
| Cc1c2c(=O)n(-c3ccccn3)n(Cc3ccccc3)c2cc(=O)n1Cc1nc(Cl)cs1 [AVG-252] | 100 to 1000 |
| Cc1c2c(=O)n(-c3ccccn3)n(Cc3ccccc3)c2cc(=O)n1Cc1ccccc1F [AVG-130] | 100 to 1000 |
| Cc1c2c(=O)n(-c3nc4ccccc4s3)n(Cc3ccccc3)c2cc(=O)n1CC1CCNCC1 [AVG-038] | > 20000 |
| Cc1c2c(=O)n(-c3ccccn3)n(Cc3ccccc3)c2cc(=O)n1Cc1cccc(Cl)n1 [AVG-171] | 10 to 100 |
| Cc1c2c(=O)n(-c3nc4ccccc4s3)n(Cc3ccccc3)c2cc(=O)n1C1CCN(C)CC1 [AVG-042] | 1000 to 10000 |
| Cc1c2c(=O)n(-c3cccnn3)n(Cc3ccccc3)c2cc(=O)n1Cc1ccco1 [AVG-109] | 1000 to 10000 |
| Cc1cccc2sc(-n3c(=O)c4c(C)n(Cc5cccc(Cl)n5)c(=O)cc4n3Cc3ccccc3)nc12 [AVG-191] | 100 to 1000 |
| Cc1c2c(=O)n(-c3nc4ccccc4s3)n(Cc3ccccc3)c2cc(=O)n1Cc1cccc(OC(C)C)n1 [AVG-205] | 100 to 1000 |
| COc1ccc(Cn2c(=O)c3c(C)n(Cc4ccccn4)c(=O)cc3n2Cc2ccccc2)cc1 [AVG-199] | 10000 to 20000 |
| Cc1c2c(=O)n(-c3nc4ccccc4s3)n(Cc3ccccc3)c2cc(=O)n1Cc1ccccc1Cl [AVG-076] | 10000 to 20000 |
| Cc1c2c(=O)n(-c3nc4ccncc4s3)n(Cc3ccccc3)c2cc(=O)n1Cc1cccc(Cl)n1 [AVG-197] | 10 to 100 |
| Cc1c2c(=O)n(-c3ncccn3)n(Cc3ccccc3)c2cc(=O)n1Cc1ccco1 [AVG-105] | > 20000 |
| Cc1c2c(=O)n(-c3nc4ccccc4s3)n(Cc3ccccc3)c2cc(=O)n1Cc1ccc(Cl)cc1 [AVG-031] | 100 to 1000 |
| Cc1c2c(=O)n(-c3nc4ccccc4s3)n(Cc3ccccc3)c2cc(=O)n1Cc1nccnc1Cl [AVG-164] | > 20000 |
| Cc1c2c(=O)n(-c3nc4ccccc4s3)n(C)c2cc(=O)n1Cc1ccc(Cl)cc1 [AVG-032] | > 20000 |
| Cc1c2c(=O)n(-c3nc4ccccc4s3)n(Cc3ccccc3)c2cc(=O)n1Cc1ccncc1 [AVG-089] | 1000 to 10000 |

| SMILES | EC50 [nM] |
| --- | --- |
| COc1ccc(Cn2c3cc(=O)n(Cc4cccc(Cl)n4)c(C)c3c(=O)n2-c2nc3ccccc3s2)cc1 [AVG-178] | 10 to 100 |
| Cc1c2c(=O)n(-c3nc4ccccc4s3)n(Cc3ccccc3)c2cc(=O)n1Cc1cccc(F)n1 [AVG-214] | 100 to 1000 |
| Cc1c2c(=O)n(-c3nc4ccccc4s3)n(Cc3ccco3)c2cc(=O)n1Cc1ccco1 [AVG-122] | 1000 to 10000 |
| Cc1c2c(=O)n(-c3ccccn3)n(Cc3ccccc3)c2cc(=O)n1Cc1ccc(Cl)cc1 [AVG-078] | 100 to 1000 |
| Cc1c2c(=O)n(-c3nc4ccccc4s3)n(Cc3ccccc3)c2cc(=O)n1Cc1cccnc1 [AVG-088] | 1000 to 10000 |
| Cc1c2c(=O)n(-c3nc4ccccc4s3)n(CC3CCCCO3)c2cc(=O)n1Cc1ccco1 (centres unmarked) [AVG-073] | 1000 to 10000 |
| Cc1c2c(=O)n(-c3nc4ccc(Cl)cc4s3)n(Cc3ccccc3)c2cc(=O)n1Cc1cccc(Cl)n1 [AVG-185] | 100 to 1000 |
| Cc1c2c(=O)n(-c3nc4ccccc4s3)n(Cc3ccccc3)c2cc(=O)n1Cc1cn(C)cn1 [AVG-100] | > 20000 |
| Cc1c2c(=O)n(-c3nc4ccccc4s3)n(Cc3ccccc3)c2cc(=O)n1Cc1ccccn1 [AVG-036] | 100 to 1000 |
| Cc1c2c(=O)n(-c3nc4ccccc4s3)n(Cc3ccccc3)c2cc(=O)n1Cc1ncccc1Cl [AVG-161] | 1000 to 10000 |
| Cc1c2c(=O)n(-c3nc4ccccc4s3)n(Cc3ccccc3Cl)c2cc(=O)n1Cc1cccc(Cl)n1 [AVG-175] | 1000 to 10000 |
| Cc1c2c(=O)n(-c3nc4ccccc4s3)n(CC3CCCCC3)c2cc(=O)n1Cc1ccco1 [AVG-024] | 1000 to 10000 |
| Cc1c2c(=O)n(-c3nc4ccccc4s3)n(Cc3ccccc3)c2cc(=O)n1Cc1cccc(C2CCOCC2)n1 [AVG-227] | 100 to 1000 |
| Cc1c2c(=O)n(-c3nc4ccccc4s3)n(CC3CCOCC3)c2cc(=O)n1Cc1ccco1 [AVG-025] | 1000 to 10000 |
| COc1cccc(Cn2c(C)c3c(=O)n(-c4cc(Cl)ccn4)n(Cc4ccccc4)c3cc2=O)n1 [AVG-245] | 100 to 1000 |
| Cc1c2c(=O)n(-c3ccncn3)n(Cc3ccccc3)c2cc(=O)n1Cc1ccco1 [AVG-108] | 1000 to 10000 |
| Cc1c2c(=O)n(-c3ccncc3)n(Cc3ccccc3)c2cc(=O)n1Cc1ccco1 [AVG-082] | 1000 to 10000 |
| Cc1c2c(=O)n(-c3cnccn3)n(Cc3ccccc3)c2cc(=O)n1Cc1ccco1 [AVG-106] | 1000 to 10000 |
| Cc1c2c(=O)n(-c3cc4ccccc4cn3)n(Cc3ccccc3)c2cc(=O)n1Cc1ccco1 [AVG-034] | 1000 to 10000 |
| Cc1c2c(=O)n(-c3ccccc3)n(Cc3ccccc3)c2cc(=O)n1Cc1ccco1 [AVG-080] | 1000 to 10000 |
| Cc1c2c(=O)n(-c3nc4c(Cl)cccc4s3)n(Cc3ccccc3)c2cc(=O)n1Cc1cccc(Cl)n1 [AVG-183] | 10 to 100 |

| SMILES | EC50 [nM] |
| --- | --- |
| Cc1c2c(=O)n(-c3ccccn3)n(CC3CCOCC3)c2cc(=O)n1Cc1ccc(Cl)cc1 [AVG-079] | > 20000 |
| Cc1c2c(=O)n(-c3nc4ccccc4s3)n(Cc3ccccc3)c2cc(=O)n1Cc1ncco1 [AVG-096] | 1000 to 10000 |
| Cc1c2c(=O)n(-c3nc4ccccc4s3)n(Cc3ccccc3)c2cc(=O)n1Cc1ccc(Cl)c(Cl)n1 [AVG-168] | 100 to 1000 |
| Cc1c2c(=O)n(-c3nc4ccccc4s3)n(Cc3ccccc3)c2cc(=O)n1Cc1cccc(OCCCN(C)C)n1 [AVG-207] | 1000 to 10000 |
| Cc1c2c(=O)n(-c3ccccn3)n(Cc3ccccc3)c2cc(=O)n1Cc1ccco1 [AVG-035] | 1000 to 10000 |
| Cc1c2c(=O)n(-c3nc4ccccc4s3)n(Cc3ccccc3)c2cc(=O)n1Cc1cccnn1 [AVG-091] | 1000 to 10000 |
| Cc1c2c(=O)n(-c3nc4ccccc4s3)n(Cc3ccccc3)c2cc(=O)n1Cc1ccncn1 [AVG-092] | 1000 to 10000 |
| Cc1c2c(=O)n(-c3nc4ccccc4s3)n(Cc3ccccc3)c2cc(=O)n1Cc1cccc(Cl)c1 [AVG-077] | 100 to 1000 |
| Cc1c2c(=O)n(-c3nc4ccccc4s3)n(Cc3ccccc3)c2cc(=O)n1Cc1cnc(Cl)cn1 [AVG-163] | 1000 to 10000 |
| Cc1c2c(=O)n(-c3nc4ccccc4s3)n(Cc3ccccc3)c2cc(=O)n1CC1CCCO1 (centres unmarked) [AVG-074] | 10000 to 20000 |
| Cc1nc(-n2c(=O)c3c(C)n(Cc4ccco4)c(=O)cc3n2Cc2ccccc2)sc1C [AVG-033] | 1000 to 10000 |
| COc1cccc(Cn2c(C)c3c(=O)n(-c4ccccn4)n(Cc4ccccc4)c3cc2=O)n1 [AVG-203] | 10 to 100 |
| Cc1c2c(=O)n(-c3ccccc3)n(Cc3ccccc3)c2cc(=O)n1Cc1ccccn1 [AVG-107] | 1000 to 10000 |
| Cc1c2c(=O)n(-c3nc4ccccc4s3)n(Cc3ccccc3)c2cc(=O)n1Cc1cccc(OC2CCN(C)CC2)n1 [AVG-208] | 1000 to 10000 |
| COc1cccc2sc(-n3c(=O)c4c(C)n(Cc5cccc(Cl)n5)c(=O)cc4n3Cc3ccccc3)nc12 [AVG-187] | 100 to 1000 |
| Cc1cccc2nc(-n3c(=O)c4c(C)n(Cc5cccc(Cl)n5)c(=O)cc4n3Cc3ccccc3)sc12 [AVG-194] | 100 to 1000 |
| Cc1c2c(=O)n(-c3nc4ccccc4s3)n(Cc3cocn3)c2cc(=O)n1Cc1ccco1 [AVG-125] | > 20000 |
| Cc1c2c(=O)n(-c3nc4ccccc4s3)n(C(C)c3ccccc3)c2cc(=O)n1Cc1ccccn1 (centres unmarked) [AVG-135] | 10000 to 20000 |
| Cc1ccc2nc(-n3c(=O)c4c(C)n(Cc5cccc(Cl)n5)c(=O)cc4n3Cc3ccccc3)sc2c1 [AVG-193] | 100 to 1000 |
| Cc1c2c(=O)n(-c3nc4ccccc4s3)n(Cc3ccccc3)c2cc(=O)n1C1CCOCC1 [AVG-043] | 10000 to 20000 |
| Cc1c2c(=O)n(-c3nc4ccccc4s3)n(CC3CCCC3)c2cc(=O)n1Cc1ccco1 [AVG-071] | 1000 to 10000 |

From US10906899B2, “Bicyclic fused pyrazole derivatives for the treatment of RSV” (GEORGIA STATE UNIVERSITY RESEARCH FOUNDATION, INC., priority 2016, dated 2021)
